Results from US20110212100A1, “METHODS FOR MODULATING DEVELOPMENT AND EXPANSION OF IL-17 EXPRESSING CELLS” (priority 2007, published 2011).

What was measured:
cultured fibroblasts = test: Non-specific effects on cultured fibroblasts; type: cell-based
Experimental: (§1) At concentrations over 80 nM, HF has a variety of non-specific effects on both T-cells and fibroblasts. […] At the recommended tolerated dose for chronic treatment (0.5 mg/day), plasma levels of HF were ˜0.5 ng/ml (1 nM). (de.Jonge et al., Eur J Cancer, vol. 42(12):1768-74 (2006)).

SV-MES mesangial cells = test: Stress response in fibroblasts (eIF2α western blot); type: cell-based; conditions: 20 nM HF, 2 hours
Experimental: SV-MES mesangial cells were stimulated for 2 hours with DMSO, 20 nM MAZ1310 or 20 nM HF. Whole cell lysates were analyzed for expression of phosphorylated or total eIF2α or GCN2 by western blotting.
Western blotting: Whole cell lysates were generated from T cells activated for the indicated times. For STAT3 and Smad2/3 western blots cells were harvested, washed in PBS and lysed in 50 mM Tris, pH 7.4, 0.1% SDS, 1% Triton-X100, 140 mM NaCl, 1 mM EDTA, 1 mM EGTA supplemented with protease inhibitors tablets (Roche-Germany), 1 mM NaF and 1 mM Na3VO4. For eIF2α and ATF4 western blots, cells were harvested as above and lysed in 50 mM Tris, pH 7.4, 2% SDS, 20% glycerol and 2 mM EDTA supplemented with protease and phosphatase inhibitors as above. All lysates were cleared via centrifugation and 15-30 μg of protein was resolved by SDS-PAGE. Protein was transferred to nitrocellulose membranes, blocked and blotted using specific antibodies. Antibodies used for western blot analysis were anti-phospho-Smad2, anti-STAT3 (pY705), anti-STAT3, anti-eIF2α^pS51, anti-eIF2α, anti-GCN2^pT898, anti-GCN2 (all from cell signaling technology, Danvers, Mass.). Anti-ATF4/CREB2 and anti-β-actin were purchased from Santa Cruz biotechnology (Santa Cruz, Calif.). […]

fibrosis = conditions: Pines et al.; cited from earlier work
T-cells and fibroblasts = test: Effects on pro-inflammatory and pro-fibrotic gene expression in T-cells and fibroblasts in vitro; type: cell-based
Experimental: as §1
In T-cells and fibroblasts in vitro, HF has highly specific effects on pro-inflammatory and pro-fibrotic gene expression in a dose range of ˜2-40 nM. At doses>80 nM, non-specific effects on protein synthesis and cell proliferation are seen. The compositions are formulated to deliver a dosage of HF that will have specific effects on pro-inflammatory cytokine expression or ECM architecture in the 2-40 nM range, but keep the dosage below levels that can cause non-specific effects.

O=C(CC1NCCCC1O)Cn1cnc2cc(Br)c(Cl)cc2c1=O (racemic) [HF, 7-bromo-6-chloro-3-[3-(3-hydroxy-2-piperidinyl)-2-oxopropyl]-4(3H)-quinazolinone]
concentration inhibiting protein synthesis and cell proliferation in fibroblast culture (cultured fibroblasts): over 80 nM
signaling downstream of mTOR in fibroblasts, in words (cultured fibroblasts): did not inhibit signaling downstream of mTOR
death of cultured fibroblasts, in words (cultured fibroblasts; doses up to 500 nM over 5 days): does not, however, cause death
eIF2α phosphorylation in SV-MES mesangial cells, in words (SV-MES mesangial cells): increased eIF2α phosphorylation
concentration range for inhibition of fibrosis in vitro (fibrosis): 1 to 200 nM
dose range of highly specific effects on pro-inflammatory and pro-fibrotic gene expression (T-cells and fibroblasts): 2 to 40 nM
